The structures appear in SMILES notation. In brackets after ≈: the same amount, converted by molar mass.

For test [1], the system named is Staphylococcus aureus IFO 12732. The experiment in a line: Minimal inhibitory concentration, standard method of Japan Society of Chemotherapy. The format is cell-based. As to conditions: IFO12732.
Test [2] relates to Mycobacterium tuberculosis H37 Rv. The test can be described thus: Survival of mice infected with tuberculosis, groups of 10 (Tables 4 and 5). As to conditions: oral, 200 μg/mouse; for dead mice: fortieth day.
The subject of test [3] is Mycobacterium smegmatis ATCC 607. The experiment in a line: Minimal inhibitory concentration, standard method of Japan Society of Chemotherapy. As to conditions: Mycolicibacterium smegmatis, ATCC607. The test is classed as cell-based.
The subject of test [4] is Micrococcus luteus IFO 12708. Described as above. The format is cell-based. As to conditions: IFO12708.
Test [5] has as its system Klebsiella pneumoniae IFO 3512. The description is as above. The format is cell-based. The note with it: IFO3512.
Test [6] deals with Mycobacterium tuberculosis H37 Rv. The experiment in a line: Minimal inhibitory concentration against a tubercle bacillus. As to conditions: Kirchner liquid medium containing 10% bovine serum, 37° C., 4 weeks.
For test [7], the system named is Bacillus subtilis IFO 3134. The test can be described thus: Minimal inhibitory concentration, standard method of Japan Society of Chemotherapy. The test is classed as cell-based. The note with it: IFO3134.
Test [8] has as its system Escherichia coli IFO 12734. The test is described as above. The format is cell-based. The note with it: IFO12734.
Test [9] concerns Mycobacterium tuberculosis H37 Rv. The experiment in a line: Therapeutic effect on mice infected with tuberculosis, groups of 20 (FIG. 1). The note with it: oral, 200 μg/mouse once a day, six days a week.

For the compound `CCCCN1CCN(c2cc(O)c3nc4c5c6c7c(C)c(O)c5c(=O)c(c-4oc3c2)NC(=O)C(C)=CC=CC(C)C(O)C(C)C(O)C(C)C(OC(C)=O)C(C)C(OC)C=COC(C)(O7)C6=O)CC1` (stereo not drawn) [Derivative No. 1], the MIC in test [1] was at most 0.02 µg/mL; in test [3], 5 µg/mL (≈ 5.31 µM); in [4] it was at most 0.02 µg/mL; in test [5], over 10 µg/mL; in test [7] it was at most 0.02 µg/mL; in [8] it was over 10 µg/mL. The Survival rate in test [2] (Table 5, control 0%) turned out to be 100%. Further, the dead mice entry in test [2] (Table 5 test) was “there was not observed any dead mouse”. Moreover, in test [6], the Minimal inhibitory concentration stood at 0.035 µg/mL (≈ 0.0372 µM).

As for `COC1C=COC2(C)Oc3c(C)c(O)c4c(=O)c(c5oc6cc(N7CCN(CC(C)C)CC7)cc(O)c6nc-5c4c3C2=O)NC(=O)C(C)=CC=CC(C)C(O)C(C)C(O)C(C)C(OC(C)=O)C1C` (stereo not drawn) [Derivative No. 2], the MIC in test [1] was at most 0.02 µg/mL; in test [3], 2.5 µg/mL (≈ 2.66 µM); in [4], at most 0.02 µg/mL; in test [5], over 10 µg/mL; in test [7], 0.04 µg/mL (≈ 0.0425 µM); in [8], over 10 µg/mL. Further, the Survival rate in test [2] (Table 4, control 30%) worked out at 100%. In addition, the dead mice entry in test [2] (Table 4 test) is given as “there was not observed any dead mouse”. The “therapeutic effect as compared with rifampicin (and derivative A)” value in [9] is “excellent therapeutic effect as compared with rifampicin”. This compound yielded a Minimal inhibitory concentration in [6] of 0.017 µg/mL (≈ 0.0181 µM).

Regarding `COC1C=COC2(C)Oc3c(C)c(O)c4c(=O)c(c5oc6cc(N7CCN(CC8CC8)CC7)cc(O)c6nc-5c4c3C2=O)NC(=O)C(C)=CC=CC(C)C(O)C(C)C(O)C(C)C(OC(C)=O)C1C` (stereo not drawn) [Derivative No. 3], the MIC in [1] is at most 0.02 µg/mL; in test [3] it was 2.5 µg/mL (≈ 2.66 µM); in test [4], at most 0.02 µg/mL; in [5], over 10 µg/mL; in test [7], at most 0.02 µg/mL; in test [8], over 10 µg/mL. In test [2] (Table 4, control 30%), the Survival rate was found to be 100%. Moreover, the dead mice entry in [2] (Table 4 test) is on record as “there was not observed any dead mouse”. The same compound showed a Minimal inhibitory concentration in test [6] of 0.017 µg/mL (≈ 0.0181 µM).

Take `CCC(C)N1CCN(c2cc(O)c3nc4c5c6c7c(C)c(O)c5c(=O)c(c-4oc3c2)NC(=O)C(C)=CC=CC(C)C(O)C(C)C(O)C(C)C(OC(C)=O)C(C)C(OC)C=COC(C)(O7)C6=O)CC1` (stereo not drawn) [Derivative No. 4]: the minimum inhibitory concentration (MIC) in test [1] is at most 0.02 µg/mL; in [3], 1.25 µg/mL (≈ 1.33 µM); in [4], at most 0.02 µg/mL; in test [5] it was over 10 µg/mL; in test [7] it was at most 0.02 µg/mL; in test [8] it was over 10 µg/mL. Further, the Survival rate in test [2] (Table 5, control 0%) is listed as 100%. For the same compound, the dead mice entry in [2] (Table 5 test) was “there was not observed any dead mouse”. In [6], the Minimal inhibitory concentration was found to be 0.017 µg/mL (≈ 0.0181 µM).

For `COC1C=COC2(C)Oc3c(C)c(O)c4c(=O)c(c5oc6cc(N7CCN(CCC(C)C)CC7)cc(O)c6nc-5c4c3C2=O)NC(=O)C(C)=CC=CC(C)C(O)C(C)C(O)C(C)C(OC(C)=O)C1C` (stereo not drawn) [Derivative No. 5], the MIC in test [1] is at most 0.02 µg/mL; in [3], 5 µg/mL (≈ 5.23 µM); in test [4], at most 0.02 µg/mL; in [5] it was over 10 µg/mL; in [7] it was 0.16 µg/mL (≈ 0.168 µM); in test [8], over 10 µg/mL. For the same compound, the Survival rate in test [2] (Table 4, control 30%) came out at 100%. Further, the dead mice result in test [2] (Table 4 test) is on record as “there was not observed any dead mouse”. This compound also showed a Minimal inhibitory concentration in [6] of 0.07 µg/mL (≈ 0.0733 µM).

Regarding `COC1C=COC2(C)Oc3c(C)c(O)c4c(=O)c(c5oc6cc(N7CCN(C(C)(C)C)CC7)cc(O)c6nc-5c4c3C2=O)NC(=O)C(C)=CC=CC(C)C(O)C(C)C(O)C(C)C(OC(C)=O)C1C` (stereo not drawn) [Derivative No. 6], the MIC in [1] was at most 0.02 µg/mL; in test [3], 1.25 µg/mL (≈ 1.33 µM); in [4], at most 0.02 µg/mL; in test [5], over 10 µg/mL; in [7], at most 0.02 µg/mL; in [8], over 10 µg/mL. Besides, the Survival rate in test [2] (Table 5, control 0%) is reported as 100%. Further, the dead mice entry in test [2] (Table 5 test) is “there was not observed any dead mouse”. Further, the Minimal inhibitory concentration in test [6] amounted to 0.008 µg/mL (≈ 0.0085 µM).

On to `C=CCN1CCN(c2cc(O)c3nc4c5c6c7c(C)c(O)c5c(=O)c(c-4oc3c2)NC(=O)C(C)=CC=CC(C)C(O)C(C)C(O)C(C)C(OC(C)=O)C(C)C(OC)C=COC(C)(O7)C6=O)CC1` (stereo not drawn) [Derivative No. 7], for which the minimal inhibitory concentration (MIC) in test [1] is at most 0.02 µg/mL; in test [3] it was 2.5 µg/mL (≈ 2.7 µM); in test [4], at most 0.02 µg/mL; in [5], over 10 µg/mL; in test [7], 0.04 µg/mL (≈ 0.0432 µM); in [8] it was over 10 µg/mL. For the same compound, the Survival rate in test [2] (Table 4, control 30%) was 100%. Further, the dead mice result in test [2] (Table 4 test) is given as “there was not observed any dead mouse”. Also, in test [6], the Minimal inhibitory concentration was 0.035 µg/mL (≈ 0.0378 µM).

`C=CCCN1CCN(c2cc(O)c3nc4c5c6c7c(C)c(O)c5c(=O)c(c-4oc3c2)NC(=O)C(C)=CC=CC(C)C(O)C(C)C(O)C(C)C(OC(C)=O)C(C)C(OC)C=COC(C)(O7)C6=O)CC1` (stereo not drawn) [Derivative No. 8]: the MIC in test [1] is at most 0.02 µg/mL; in test [3], 2.5 µg/mL (≈ 2.66 µM); in [4], at most 0.02 µg/mL; in test [5], over 10 µg/mL; in [7], at most 0.02 µg/mL; in test [8], over 10 µg/mL. This compound also registered a Survival rate in test [2] (Table 5, control 0%) of 100%. The dead mice entry in [2] (Table 5 test) was “there was not observed any dead mouse”. Further, the Minimal inhibitory concentration in test [6] worked out at 0.017 µg/mL (≈ 0.0181 µM).

For `COC1C=COC2(C)Oc3c(C)c(O)c4c(=O)c(c5oc6cc(N7CCN(CC=C(C)C)CC7)cc(O)c6nc-5c4c3C2=O)NC(=O)C(C)=CC=CC(C)C(O)C(C)C(O)C(C)C(OC(C)=O)C1C` (stereo not drawn) [Derivative No. 9], the MIC in test [1] is at most 0.02 µg/mL; in [3], 2.5 µg/mL (≈ 2.62 µM); in test [4], at most 0.02 µg/mL; in test [5], over 10 µg/mL; in [7] it was 0.08 µg/mL (≈ 0.0839 µM); in test [8], over 10 µg/mL. The Survival rate in test [2] (Table 4, control 30%) was determined as 100%. Besides, the dead mice result in test [2] (Table 4 test) is “there was not observed any dead mouse”. The same compound displayed a Minimal inhibitory concentration in test [6] of 0.035 µg/mL (≈ 0.0367 µM).

For the compound `COC1C=COC2(C)Oc3c(C)c(O)c4c(=O)c(c5oc6cc(N7CCN8CCCC8C7)cc(O)c6nc-5c4c3C2=O)NC(=O)C(C)=CC=CC(C)C(O)C(C)C(O)C(C)C(OC(C)=O)C1C` (stereo not drawn) [Derivative No. 10], the minimal inhibitory concentration (MIC) in test [1] was at most 0.02 µg/mL; in test [3] it was 2.5 µg/mL (≈ 2.7 µM); in test [4] it was at most 0.02 µg/mL; in [5] it was 10 µg/mL (≈ 10.8 µM); in test [7], at most 0.02 µg/mL; in test [8] it was 10 µg/mL (≈ 10.8 µM). In addition, in test [2] (Table 4, control 30%), the Survival rate is given as 100%. Further, in test [2] (Table 4 test), the dead mice entry is recorded as “there was not observed any dead mouse”. Besides, in test [6], the Minimal inhibitory concentration came to 0.15 µg/mL (≈ 0.162 µM).

As to `CO[C@H]1/C=C/O[C@@]2(C)Oc3c(C)c(O)c4c(O)c(c(/C=N/N5CCN(C)CC5)c(O)c4c3C2=O)NC(=O)/C(C)=C\C=C\[C@H](C)[C@H](O)[C@@H](C)[C@@H](O)[C@@H](C)[C@H](OC(C)=O)[C@@H]1C` [Rifampicin, reference compound], the Survival rate in test [2] (Table 4, control 30%) came out at 80%; in [2] (Table 5, control 0%), 40%. Moreover, in test [6], the Minimal inhibitory concentration was determined as 0.6 µg/mL (≈ 0.729 µM).

For `COC1C=COC2(C)Oc3c(C)c(O)c4c(=O)c(c5oc6cc(N7CCCCC7)ccc6nc-5c4c3C2=O)NC(=O)C(C)=CC=CC(C)C(O)C(C)C(O)C(C)C(OC(C)=O)C1C` (stereo not drawn) [derivative B], the “therapeutic effect as compared with rifampicin (and derivative A)” value in test [9] is recorded as “inferior to rifampicin”.

In the case of `CCc1c(N2CCCC2)ccc2nc3c4c5c6c(C)c(O)c4c(=O)c(c-3oc12)NC(=O)C(C)=CC=CC(C)C(O)C(C)C(O)C(C)C(OC(C)=O)C(C)C(OC)C=COC(C)(O6)C5=O` (stereo not drawn) [derivative C], the “therapeutic effect as compared with rifampicin (and derivative A)” value in test [9] is “inferior to rifampicin”.

For the origin of these results see patent publication US4983602A, “3'-hydroxybenzoxazinorifamycin derivative, process for preparing the same and antibacterial agent containing the same” (Kanegafuchi Kagaku Kogyo Kabushiki Kaisha, priority 1988, dated 1991).
